Experimental data published in US9115151B2, “Substituted 2,10-dihydro-9-oxa-1,2,4A-triazaphenanthren-3-ones and uses thereof” (AbbVie Inc., priority 2012, dated 2015).

Tests used:
[1] = target: T1, PKCθ (Homo sapiens, UniProt Q04759); assay: In vitro enzyme assay (time-resolved fluorescence kinase assay), PKCθ, 100 μM ATP; type: biochemical
T1 construct: His6; purchased Millipore; host or cells: baculovirus in Sf21 cells
Protocol: (§1) PKC kinase activity was assayed by time-resolved fluorescence in vitro kinase assay. Unless otherwise indicated, all reagents used for enzyme assays were obtained from Sigma. Specifically, 5 μL N- or C-terminal His6-tagged, recombinant, human PKC, expressed by baculovirus in Sf21 cells (Millipore) was mixed with 5 μL inhibitor (various concentrations, 5% final DMSO), 5 μL Bio-cdc peptide (Biotin-Ahx-[…], 2 μM final concentration, New England Peptide) and 5 μL of ATP (100 μM or 1000 μM final concentration) in 1× reaction buffer, 20 μL final volume.
(§2) Following a sixty minute incubation at room temperature, the reaction was quenched with 5 μL of 0.5 M EDTA pH 7.5.
(§3) Background counts from a minus enzyme control is subtracted from all data. Data (after background correction) are converted to percent activity by dividing by the signal obtained from PKC without drug sample.

[2] = target: T2, PKCα (Homo sapiens, UniProt P17252); assay: In vitro enzyme assay (time-resolved fluorescence kinase assay), PKCα, 100 μM ATP; type: biochemical; conditions: 100 μM ATP; read-out: PKCα enzyme IC50
T2 construct: His6; purchased Millipore; host or cells: baculovirus in Sf21 cells
Protocol: as §1, §2, §3

[3] = tested on: CD3/CD28 induced IL-2 in human T-Blasts; assay: T-Blasts CD3/CD28 induced IL-2 assay; type: cell-based; conditions: read-out: CD3/CD28-stimulated IL2 in T-blasts EC50
Protocol: T-Blasts CD3/CD28 Induced IL-2 Assay
Human T-Blasts are generated using PHA following standard protocols. T-Blasts are freeze aliquoted and vials thawed as required. […] Seed 2×10^5/100 μL cell suspension per well in flat bottomed 96 well plate. Compound dilutions are prepared from 100% DMSO stocks. A total of 8 serial dilutions are made (1/3 in 100% DMSO). Compounds are diluted 1/50 in growth medium to prepare 4× stocks of each tested concentration. 50 μL from each 4× stock concentration is added to the 100 μL cell suspension and incubated for 30 minutes prior stimulus addition. A 4× stimulus stock is prepared using anti-CD3+anti-CD28 antibodies. Antibody mix is added to the cell/compounds suspension in 50 μL at 5 μg/mL final concentration. Compounds are tested in duplicates. Plates are transferred to 37° C./CO2 incubator for 24 hours. After incubation 130 μL of supernatant is collected for IL-2 determination while MTT toxicity analysis is performed on remaining cells/medium.

T1 sequence (Q04759 whole entry): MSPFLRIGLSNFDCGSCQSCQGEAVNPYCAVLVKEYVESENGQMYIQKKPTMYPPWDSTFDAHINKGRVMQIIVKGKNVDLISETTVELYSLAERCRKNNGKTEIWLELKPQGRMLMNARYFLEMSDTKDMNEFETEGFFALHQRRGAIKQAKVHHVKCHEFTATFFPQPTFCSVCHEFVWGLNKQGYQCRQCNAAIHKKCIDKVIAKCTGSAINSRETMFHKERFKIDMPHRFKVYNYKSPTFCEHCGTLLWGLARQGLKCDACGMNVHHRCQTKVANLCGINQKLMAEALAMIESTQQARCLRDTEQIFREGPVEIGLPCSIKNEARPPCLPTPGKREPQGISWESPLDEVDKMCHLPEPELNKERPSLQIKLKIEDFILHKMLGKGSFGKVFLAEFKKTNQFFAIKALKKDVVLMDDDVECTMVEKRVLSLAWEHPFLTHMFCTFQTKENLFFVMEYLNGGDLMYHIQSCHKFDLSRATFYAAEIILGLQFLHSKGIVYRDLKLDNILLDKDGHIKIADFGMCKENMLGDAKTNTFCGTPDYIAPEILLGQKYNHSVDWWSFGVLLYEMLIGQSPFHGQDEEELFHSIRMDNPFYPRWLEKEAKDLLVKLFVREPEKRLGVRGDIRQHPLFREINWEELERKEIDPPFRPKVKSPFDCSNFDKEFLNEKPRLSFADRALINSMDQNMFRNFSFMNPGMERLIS

SMILES	IC50 [1] [nM]	IC50 [2] [nM]	EC50 [3] [nM]
COc1ccc(-c2cc3c(cc2NC2CNC2)N2C(=NNC(=O)C2C)CO3)cc1 (racemic) [Example 30]	< 250	1000 to 10000	250 to 1000
Cc1ccc(F)c(-c2cc3c(cc2NC2CNC2)N2C(=NNC(=O)C2C)CO3)c1 (racemic) [Example 31]	< 250	1000 to 10000	250 to 1000
Cc1cc(-c2cc3c(cc2NC2CNC2)N2C(=NNC(=O)C2C)CO3)ccc1F (racemic) [Example 32]	< 250	1000 to 10000	250 to 1000
Cc1cc(F)cc(-c2cc3c(cc2NC2CNC2)N2C(=NNC(=O)C2C)CO3)c1 (racemic) [Example 33]	< 250	1000 to 10000	250 to 1000
COc1ccccc1-c1cc2c(cc1NC1CNC1)N1C(=NNC(=O)C1C)CO2 (racemic) [Example 34]	< 250	1000 to 10000	250 to 1000
COc1ccc2cc(-c3cc4c(cc3NC3CNC3)N3C(=NNC(=O)C3C)CO4)ccc2c1 (racemic) [Example 35]	< 250	1000 to 10000	< 250
CC1C(=O)NN=C2COc3cc(-c4ccc5ccccc5c4)c(NC4CNC4)cc3N21 (racemic) [Example 36]	< 250	1000 to 10000	< 250
CC1C(=O)NN=C2COc3cc(-c4ccc5scnc5c4)c(NC4CNC4)cc3N21 (racemic) [Example 37]	< 250	1000 to 10000	< 250
CC1C(=O)NN=C2COc3cc(-c4ccc5ncsc5c4)c(NC4CNC4)cc3N21 (racemic) [Example 38]	< 250	1000 to 10000	250 to 1000
CC1C(=O)NN=C2COc3cc(-c4cccc(C#N)c4)c(NC4CNC4)cc3N21 (racemic) [Example 39]	< 250	1000 to 10000	250 to 1000
CC1C(=O)NN=C2COc3cc(-c4cccc(COC(C)(C)C)c4)c(NC4CNC4)cc3N21 (racemic) [Example 40]	250 to 1000	1000 to 10000	250 to 1000
CC1C(=O)NN=C2COc3cc(-c4ccc(C#N)cc4)c(NC4CNC4)cc3N21 (racemic) [Example 41]	250 to 1000	1000 to 10000	250 to 1000
CC1C(=O)NN=C2COc3cc(-c4ccccc4F)c(NC4CNC4)cc3N21 (racemic) [Example 42]	< 250	1000 to 10000	< 250
CC1C(=O)NN=C2COc3cc(-c4ccc(Cl)cc4Cl)c(NC4CNC4)cc3N21 (racemic) [Example 43]	< 250	1000 to 10000	< 250
CC1C(=O)NN=C2COc3cc(-c4ccccc4Cl)c(NC4CNC4)cc3N21 (racemic) [Example 44]	< 250	1000 to 10000	< 250
CC1C(=O)NN=C2COc3cc(-c4ccc(Cl)cc4)c(NC4CNC4)cc3N21 (racemic) [Example 45]	< 250	1000 to 10000	< 250
CC1C(=O)NN=C2COc3cc(-c4cccc(F)c4)c(NC4CNC4)cc3N21 (racemic) [Example 46]	< 250	1000 to 10000	< 250
CC1C(=O)NN=C2COc3cc(-c4ccc(F)cc4F)c(NC4CNC4)cc3N21 (racemic) [Example 47]	< 250	1000 to 10000	< 250
Cc1ccccc1-c1cc2c(cc1NC1CNC1)N1C(=NNC(=O)C1C)CO2 (racemic) [Example 48]	< 250	1000 to 10000	< 250
CC1C(=O)NN=C2COc3cc(C4CC4)c(NC4CNC4)cc3N21 (racemic) [Example 49]	< 250	1000 to 10000	< 250
CC1C(=O)NN=C2COc3cc(-c4ccc(F)cc4)c(NC4CNC4)cc3N21 (racemic) [Example 50]	< 250	1000 to 10000	< 250

SMILES	IC50 [1] [nM]	IC50 [2] [nM]	EC50 [3] [nM]
CC1C(=O)NN=C2COc3cc(-c4ccccc4)c(NC4CNC4)cc3N21 (racemic) [Example 51]	< 250	1000 to 10000	250 to 1000
CC1C(=O)NN=C2COc3cc(-c4cccc5ccccc45)c(NC4CNC4)cc3N21 (racemic) [Example 52]	< 250	1000 to 10000	250 to 1000
C[C@@H]1C(=O)NN=C2COc3cc(-c4ccccc4)c(NC4CNC4)cc3N21 (single isomer, unassigned) [Example 1-1, trifluoroacetic acid]	< 250	1000 to 10000	< 250
C[C@H]1C(=O)NN=C2COc3cc(-c4ccccc4)c(NC4CNC4)cc3N21 (single isomer, unassigned) [Example 1-2, trifluoroacetic acid]	250 to 1000	1000 to 10000	1000 to 10000
Cc1cc2c(cc1NC1CNC1)N1C(=NNC(=O)[C@H]1C)CO2 (single isomer, unassigned) [Example 54-1, trifluoroacetic acid]	< 250	1000 to 10000	250 to 1000
Cc1cc2c(cc1NC1CNC1)N1C(=NNC(=O)[C@@H]1C)CO2 (single isomer, unassigned) [Example 54-2, trifluoroacetic acid]	250 to 1000	1000 to 10000	1000 to 10000
C[C@H]1C(=O)NN=C2COc3cc(F)c(NC4CNC4)cc3N21 (single isomer, unassigned) [Example 56-1, trifluoroacetic acid]	250 to 1000	1000 to 10000	1000 to 10000
C[C@@H]1C(=O)NN=C2COc3cc(F)c(NC4CNC4)cc3N21 (single isomer, unassigned) [Example 56-2, trifluoroacetic acid]	< 250	1000 to 10000	< 250
CC(C)c1cc2c(cc1NC1CNC1)N1C(=NNC(=O)[C@H]1C)CO2 (single isomer, unassigned) [Example 57-1, trifluoroacetic acid]	< 250	1000 to 10000	< 250
CC(C)c1cc2c(cc1NC1CNC1)N1C(=NNC(=O)[C@@H]1C)CO2 (single isomer, unassigned) [Example 57-2, trifluoroacetic acid]	250 to 1000	1000 to 10000	1000 to 10000
C[C@@H]1C(=O)NN=C2COc3cc(C4CC4)c(NC4CNC4)cc3N21 (single isomer, unassigned) [Example 64-1, trifluoroacetic acid]	< 250	1000 to 10000	< 250
C[C@H]1C(=O)NN=C2COc3cc(C4CC4)c(NC4CNC4)cc3N21 (single isomer, unassigned) [Example 64-2, trifluoroacetic acid]	250 to 1000	1000 to 10000	1000 to 10000
CC(C)c1cc2c(cc1OC1CNC1)N1C(=NNC(=O)[C@H]1C)CO2 (single isomer, unassigned) [Example 96, trifluoroacetic acid]	< 250	1000 to 10000	< 250
C[C@@H]1C(=O)NN=C2COc3ccc([C@H]4CCN[C@H](Cc5ccccc5)C4)cc3N21 (single isomer, unassigned) [Example 109-1, trifluoroacetic acid]	< 250	1000 to 10000	< 250
C[C@@H]1C(=O)NN=C2COc3ccc([C@@H]4CCN[C@H](Cc5ccccc5)C4)cc3N21 (single isomer, unassigned) [Example 109-2, trifluoroacetic acid]	< 250	1000 to 10000	< 250
CC(C)c1cc2c(cc1OC1(C)CNC1)N1C(=NNC(=O)[C@@H]1C)CO2 (single isomer, unassigned) [Example 121-1, trifluoroacetic acid]	< 250	1000 to 10000	250 to 1000
CC(C)c1cc2c(cc1OC1(C)CNC1)N1C(=NNC(=O)[C@H]1C)CO2 (single isomer, unassigned) [Example 121-2, trifluoroacetic acid]	250 to 1000	1000 to 10000	1000 to 10000
C[C@@H]1C(=O)NN=C2COc3cc(C(F)(F)F)c([C@@H](C)C4(C)CNC4)cc3N21 (single isomer, unassigned) [Example 147-1, trifluoroacetic acid]	< 250	250 to 1000	< 250
C[C@H]1C(=O)NN=C2COc3cc(-c4ccccc4F)c(N(C)[C@@]4(C)CCN(C)C4)cc3N21 (single isomer, unassigned) [Example 198-1]	< 250	1000 to 10000	1000 to 10000
C[C@H]1C(=O)NN=C2COc3cc(-c4ccccc4F)c(N(C)[C@]4(C)CCN(C)C4)cc3N21 (single isomer, unassigned) [Example 198-2]	< 250	1000 to 10000	1000 to 10000
